Experimental data published in US11129807B2, “Methods of treating schizophrenia” (Sunovion Pharmaceuticals Inc., priority 2017, dated 2021).

Assays:
[1] = tested on: Pre-pulse Inhibition (PPI) in Mice; experiment: Pre-pulse inhibition (PPI) of startle in mice;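 note: plus grades count prepulse intensities with significant PPI increase at P below 0.05 and minus means no change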; format: in vivo; details: 30 min prior to PPI test, male C57Bl/6J mice, vs. vehicle
Method: (§1) Anti-psychotic like activity of the compounds was evaluated in mice using the PCP hyperactivity and Pre-Pulse Inhibition (PPI) models of schizophrenia.
(§2) Methods: Animals: Male C57Bl/6J mice from Jackson Laboratories (Bar Harbor, Me.) were used. Upon receipt, mice were assigned unique identification numbers (tail marked) and were group housed with 4 mice per cage in OptiMICE ventilated cages. All animals remained housed in groups of four during the remainder of the study. All mice were acclimated to the colony room for at least two weeks prior to testing. During the period of acclimation, mice were examined on a regular basis, handled, and weighed to assure adequate health and suitability. Animals were maintained on a 12/12 light/dark cycle. The room temperature was maintained between 20 and 23° C. with a relative humidity maintained between 30% and 70%. Chow and water were provided ad libitum for the duration of the study. In each test, animals were randomly assigned across treatment groups.
Prepulse Inhibition of Startle: The acoustic startle is an unconditioned reflex response to an external auditory stimulus. Prepulse inhibition of startle (PPI) refers to the reduction in the startle response caused by the presentation of a low-intensity auditory stimulus prior to the startle stimulus. The PPI paradigm is used for the study of schizophrenia and antipsychotic action due to the similarities between the results from human and rodent studies. […] Various psychotomimetic drugs such as PCP can disrupt PPI. In mice, antipsychotic drugs such as clozapine can reverse the disruption of PPI induced by PCP.
Mice were placed in the PPI chambers (Med Associates) for a 5 min session of white noise (70 dB) habituation. After the habituation period the test session was initiated. The session started with a habituation block of 6 presentations of the startle stimulus alone, followed by 10 PPI blocks, each of which consisted of 6 different types of trials. Trial types were: ‘null’ (no stimuli), ‘startle’ (120 dB), ‘startle plus prepulse’ (4, 8 and 12 dB over background noise, i.e., 74, 78 or 82 dB) and ‘prepulse’ (82 dB). Trial types were presented in a random order within each block. Each trial started with a 50 ms stimulus-free period during which baseline movements were recorded. This was followed by a subsequent 20 ms period during which the prepulse stimulus was presented and responses to the prepulse measured. After a further 100 ms period, the startle stimulus was presented for 40 ms and responses recorded for 100 ms from startle onset. Responses were sampled every ms. The inter-trial interval was variable with an average of 15 s (range from 10 to 20 s). In ‘startle’ trials the basic auditory startle response was measured. The basic startle response was calculated as the mean startle response of all ‘startle’ trials (i.e., excluding the first habituation block). In ‘startle plus prepulse’ trials the degree of inhibition of the normal startle was calculated and expressed as a percentage of the basic startle response.
Mice were treated with vehicle, haloperidol (1 mg/kg; i.p) or test compound 30 min prior to PPI test. The PPI enclosures were cleaned following each test.

[2] = tested on: PCP-Induced Hyperactivity Responses in Mice; experiment: PCP-induced hyperactivity (open field) in mice;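 note: plus means significant inhibition of PCP hyperactivity at P below 0.05 and minus means none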; format: in vivo; details: male C57Bl/6J mice, vs. vehicle + PCP
Method: as §1, §2
The analysis was configured to divide the open field into a center and periphery zone. Distance traveled was measured from horizontal beam breaks as the mouse moved whereas rearing activity was measured from vertical beam breaks.
Mice were injected with vehicle, test compound, or clozapine (1 mg/kg; i.p) and placed in the OF chambers for 30 min measurement of baseline activity. Mice were then injected with either water or PCP (5 mg/kg; i.p) and placed back in the OF chambers for a 60-minute session. At the end of each OF test session the OF chambers were thoroughly cleaned.

[3] = 0.3 mg/kg Compound + PCP (5 mg/kg; i.p)
[4] = 1 mg/kg Compound + PCP (5 mg/kg; i.p)
[5] = 3 mg/kg Compound + PCP (5 mg/kg; i.p)
[6] = 10 mg/kg Compound + PCP (5 mg/kg; i.p)
[7] = 30 mg/kg Compound + PCP (5 mg/kg; i.p)
[8] = 100 mg/kg Compound + PCP (5 mg/kg; i.p)

Structure (SMILES)	Effect on Pre-pulse Inhibition (PPI) ([1]; 3 mg/kg)	Effect on Pre-pulse Inhibition (PPI) ([1]; 10 mg/kg)	Effect on Pre-pulse Inhibition (PPI) ([1]; 30 mg/kg)	Effect on Pre-pulse Inhibition (PPI) ([1]; 100 mg/kg)	Total Distance Traveled (cm) [2, 3]	Total Distance Traveled (cm) [2, 4]	Total Distance Traveled (cm) [2, 5]	Total Distance Traveled (cm) [2, 6]	Total Distance Traveled (cm) [2, 7]	Total Distance Traveled (cm) [2, 8]
CNC[C@H]1OCCc2c(C)csc21 [Compound 172]	−	−	−	−	−	+	+	−	−	
CNCC1OCCc2sccc21 (stereo not shown) [Compound 4]		+++	−	+++	+	+	+	+	+	+
CNC[C@@H]1OCCc2c(C)csc21 [Compound 171]	−	−	−	+++	−	−	−	−	+	
NC[C@@H]1OCCc2sccc21 [Compound 2]		−	−	+++				+	+	−
CCNC[C@H]1OCCc2ccsc21 [Compound 242]	−	−	−		−	+	+	+	+	
CCc1cc2c(s1)CCO[C@H]2CNC [Compound 75]		−	−	−				+	−	+
CNCC1OCCc2scc(C)c21 (stereo not shown) [Compound 78]		−	−	−				+	+	+
CCc1cc2c(s1)CCO[C@@H]2CNC [Compound 76]		−	−	−				−	−	+
NC[C@H]1OCCc2sccc21 [Compound 3]		+++	+++	−				−	−	−
CNC[C@@H]1OCCc2sc(C)cc21 [Compound 57]		−	−	++				+	+	+
CCc1cc2c(s1)CCOC2CNC (stereo not shown) [Compound 10]		+++	+++	+++				+	+	+
Cc1csc2c1CCO[C@@H]2CN [Compound 170]	−	+++	+++		−	−	−	−	−	
